What was measured:
HCT-116 = assay: Apoptosis induction in HCT-116; type: cell-based, human
MiaPaCa-2 cell = MiaPaCa-2 cell viability at increasing concentrations; type: cell-based, human
SW-620 = assay: Apoptosis induction in SW-620; type: cell-based, human
[1] = system: colon cancer stem cells (CCSC); assay: d-T3 IC50 in colon cancer stem cells; type: cell-based, human; details: 5 days treatment, daily fresh media change
ApcMin/+ mice = assay: Adenoma (intestinal polyp) formation in ApcMin/+ mice; type: in vivo
Text: FIGS. 1A and 1B show the number of intestinal polyps (FIG. 1A) and H&E staining of polyps (FIG. 1B) in ApcMin/+ mice treated with vehicle (V), aspirin (Asp), d-T3, and combination of aspirin+d-T3. Black dots in FIG. 1B point out polyps in the intestine. Although substantial preclinical evidence exists regarding the preventive activity of d-T3 and g-T3 in various types of cancers, there is no report of d-T3 prevention of colon cancer despite evidence of activity in colon cell lines and xenograft models. […] Treatment with aspirin alone reduced adenoma formation by 38%, and treatment with d-T3 alone reduced adenoma formation by 44%, while treatment with the combination of aspirin and d-T3 reduced adenoma formation by 58%.

[2] = system: AOM induced rat colon cancer model; assay: AOM induced rat colon cancer model; type: in vivo, Fisher 344 rat
Text: FIGS. 3A, 3B, 3C and 3D show the number of polyps (FIG. 3A) and cancer (FIG. 3C) with H&E stain of representative areas of polyp (FIG. 3B) and cancer (FIG. 3D) following no treatment (NT), treatment with vehicle (V), sulindac, and d-T3 in AOM-induced Fisher 344 rat model of colon carcinogenesis.
To confirm the CRC prevention activity of d-T3, the activity of d-T3 was investigated and compared this with sulindac, another established NSAID with chemoprevention activity against CRC in the AOM induced rat colon cancer model.

hCAS = target: T1, hCAS (Homo sapiens, UniProt P55060); assay: Competitive affinity-isolation of hCAS in MiaPaCa-2 cell lysate; type: binding; details: excess free compound
T1 construct: endogenous in cells; host or cells: MiaPaCa-2 human pancreatic cancer cells
T1 sequence (P55060 1-971): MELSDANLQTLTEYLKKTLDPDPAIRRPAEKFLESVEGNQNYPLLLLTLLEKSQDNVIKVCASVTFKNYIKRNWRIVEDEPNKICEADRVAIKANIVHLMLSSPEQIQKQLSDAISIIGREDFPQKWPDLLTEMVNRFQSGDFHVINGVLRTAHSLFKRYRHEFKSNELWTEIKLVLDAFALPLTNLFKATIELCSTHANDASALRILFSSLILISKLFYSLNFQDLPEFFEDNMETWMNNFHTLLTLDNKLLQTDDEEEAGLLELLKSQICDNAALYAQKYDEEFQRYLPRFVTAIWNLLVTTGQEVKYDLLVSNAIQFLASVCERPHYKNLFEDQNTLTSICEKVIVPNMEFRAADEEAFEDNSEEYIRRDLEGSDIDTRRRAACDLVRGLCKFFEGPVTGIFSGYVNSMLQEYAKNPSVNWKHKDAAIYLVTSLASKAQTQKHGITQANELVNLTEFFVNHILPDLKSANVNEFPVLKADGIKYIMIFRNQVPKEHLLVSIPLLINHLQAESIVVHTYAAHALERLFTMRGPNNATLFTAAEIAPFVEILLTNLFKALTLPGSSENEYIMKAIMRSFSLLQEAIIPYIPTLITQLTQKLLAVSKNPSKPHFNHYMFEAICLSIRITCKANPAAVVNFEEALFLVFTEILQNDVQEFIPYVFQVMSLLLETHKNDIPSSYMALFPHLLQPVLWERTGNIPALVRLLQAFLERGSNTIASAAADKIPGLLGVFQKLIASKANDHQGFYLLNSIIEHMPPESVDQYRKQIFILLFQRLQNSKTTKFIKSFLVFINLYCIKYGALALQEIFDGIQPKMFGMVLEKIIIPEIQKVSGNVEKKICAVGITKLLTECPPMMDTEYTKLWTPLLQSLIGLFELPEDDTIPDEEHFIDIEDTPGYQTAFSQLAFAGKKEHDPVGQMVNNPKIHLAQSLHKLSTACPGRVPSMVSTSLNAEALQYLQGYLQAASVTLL
Method: This experiment used a synthetic biotin-δ-tocotrienol conjugate (shown below to inhibit growth activity of cultured MiaPaca-2 human pancreatic cancer cells) to confirm affinity-isolation of hCAS. To confirm that δ-T3 binds to hCAS in intact cells, biotinylated δ-T3 (B-δ-T3) was prepared by chemically coupling the —OH group of δ-T3 to the —COOH of biotin using a PEG-iodoactamide linker (FIG. 18). […] Affinity-isolation of hCAS was inhibited in the presence of free δ-tocotrienol but not with free δ-tocopherol.

[3] = system: intestinal stem cells of ApcMin/+ mice; assay: Caspase 3 staining of intestinal crypts in ApcMin/+ mice; type: in vivo; details: small intestinal crypts of ApcMin/+ mice
Text: Although substantial preclinical evidence exists regarding the preventive activity of d-T3 and g-T3 in various types of cancers, there is no report of d-T3 prevention of colon cancer despite evidence of activity in colon cell lines and xenograft models. […] Treatment with aspirin alone reduced adenoma formation by 38%, and treatment with d-T3 alone reduced adenoma formation by 44%, while treatment with the combination of aspirin and d-T3 reduced adenoma formation by 58%.

[4] = system: MiaPaCa-2 cells stably expressing hCAS; assay: Cell death in MiaPaCa-2 cells stably over-expressing hCAS; type: cell-based, human; details: hCAS over-expression, p<0.02
Text: To determine whether hCAS over-expression can rescue from δ-T3 effects, MiaPaCa-2 cells stably expressing hCAS were generated by transfecting these cells with the hCAS gene-containing plasmid pCMV6-AC-GFP (Cat #RG211478, […]) and selecting the cells stably expressing hCAS under G418 pressure. MiaPaCa-2 cells expressing the same plasmid without the hCAS gene were also generated as empty vector control. […] The inability of over-expression to entirely overcome the effect of δ-T3 treatment further illustrates the robustness of a δ-T3 therapeutic approach.

[5] = system: Oct4, Nanog, Sox2, KLF4, c-myc, c-PARP; assay: Western blot of stem cell transcription factors and c-PARP in CCSCs; type: cell-based, human
NCM-460 = assay: Apoptosis induction in NCM-460; type: cell-based

CC(C)=CCC/C(C)=C/CC/C(C)=C/CC[C@]1(C)CCc2cc(O)cc(C)c2O1 [d-T3, δ-tocotrienol]
apoptosis (HCT-116): significantly induced apoptosis | cell killing at 100 μM concentration (MiaPaCa-2 cell; 100 μM): killing almost all cells | effect on cell viability (MiaPaCa-2 cell; increasing concentrations): most potent | apoptosis (SW-620): significantly induced apoptosis | IC50 [1]: 5 µM | reduced adenoma formation (ApcMin/+ mice): 44% | cancer formation [2]: almost completely blocked | formation of intestinal polyps [2]: significantly inhibited | affinity-isolation of hCAS / hCAS binding to biotin-T3 in presence of free competitor (hCAS): reduces hCAS binding | affinity-isolation of hCAS / hCAS binding to biotin-T3 in presence of free competitor (hCAS; listed as δ-tocotrienol): inhibited | apoptosis detected by caspase 3 staining [3]: markedly induced apoptosis | cancer cell death versus the hCAS vehicle [4]: induces significant cancer cell death | expression of Oct4, Nanog, Sox2, KLF4, and c-myc [5]: downregulation | expression of c-PARP [5]: upregulation | apoptosis (NCM-460): no effect

Reference: patent US20210205264A1, “USE OF DELTA-TOCOTRIENOL FOR TREATING CANCER” (H. LEE MOFFITT CANCER CENTER & RESEARCH INSTITUTE INC., priority 2018, published 2021)
